Data from patent US11524011B2, “H3K27 demethylase inhibitors in pediatric and juvenile osteoporosis” (THE JOHNS HOPKINS UNIVERSITY, priority 2017, dated 2022).
Entries after “also recorded” stand apart in the source; their conditions may differ.

Assays:
BALB/c mice [1] = settings: MPS daily for 2 weeks; compared to controls
Method: Four-week-old BALB/c mice were treated with methylprednisolone (MPS) or vehicle daily for 2 weeks. (8A) A schematic illustration of the steps to isolate CD144^+ vascular endothelial cells from femoral metaphyses. […] (8D-8G) Quantitative RT-PCR analysis of ki67 (8D) p16^INK4a (8E), p53 (8F), and p21^CIP1 (8G) expression in the sorted CD144^+ cells. n=3, Data are represented as mean±s.e.m. *p<0.01 as determined by Student's t-tests.

BALB/c mice [2] = assay: GSK-J4 in glucocorticoid (MPS)-treated young BALB/c mice: body weight, tail length, bone loss (μCT), angiogenesis and osteogenesis
Method: FIGS. 10A-10B. […] Body weight (10A) and Tail length (10B) were monitored at 2, 3, and 4 weeks after treatment. FIGS. 11A-11F. […] (11A) Representative μCT images of distal femur. Quantitative analyses of Femur length (11B), Trabecular bone volume fraction (BV/TV) (11C), trabecular number (Tb.N) (11D), trabecular thickness (Tb.Th) (11E), and trabecular separation (Tb.Sp) (11F). […] FIGS. 12A-12F. […] (12A-B) Double-immunofluorescence staining of femur sections was performed using antibodies against nestin (green) and H3K27me3 (red) (12A). Quantification of the percentage of nestin^+ cells that express H3K27me3 in the primary spongiosa (12B). Immunofluorescence staining of femur sections using antibody against osterix (Osx) (12C). Quantitative analysis of Osx^+ cells in the primary spongiosa (12D). Double-immunofluorescence staining of femur sections was performed using antibodies against CD31 (green) and endomucin (Emcn) (red) (12E). […] DAPI stains nuclei blue. Seven mice per group. GP, growth plate. PS, primary spongiosa. Mice femora were dissected, fixed overnight in 70% ethanol, and analyzed by high-resolution μCT (Skyscan 1172, Bruker MicroCT, Kontich, Belgium). We used NRecon image reconstruction software, version 1.6, (Bruker MicroCT), CTAn data-analysis software, version 1.9 (Bruker MicroCT), and CTVol 3-dimensional model visualization software, version 2.0, (Bruker MicroCT) to analyze parameters of the trabecular bone in the metaphysis and cortical bone in the mid-diaphysis. The scanner was set at 50 kVp, […]. Cross-sectional images of the distal femur were used to perform 3-dimensional histomorphometric analysis of trabecular bone. The sample area selected for analyses was a 2-mm length of the metaphyseal secondary spongiosa, originating 1.0 mm below the epiphyseal growth plate and extending caudally. Cortical morphometry was analyzed within a 600-μm long section at mid-diaphysis of the femur and included measurements of average thickness and cross-sectional area. […] Nuclei were counterstained with DAPI (Sigma).

Nestin-GFP mice [3] = assay: Prednisolone treatment of early pubertal Nestin-GFP mice: cellular senescence / nestin expression in femoral primary spongiosa; format: in vivo, mouse
Method: (§1) FIGS. 4A-4L. Cellular Senescence in Primary Spongiosa of Long Bone is Decelerated in Growth Hormone (GH)-Treated Mice and Accelerated in Prednisolone-Treated Mice. (4A-4F) Four week-old Nestin-GFP mice were treated with recombinant mouse-GH (5 mg/kg·B·W.) or Vehicle by daily intraperitoneal injection for 4 weeks. Immunofluorescence staining of femur sections were performed using antibodies against GFP (green) (4A) or Ki67 (red) (4E). Images in upper panels in (4A) and (4E) are lower power with boxes outlining the area of higher power in lower panels. Quantification of the number of GFP+ (4B) or Ki67+ (4F) cells in femoral primary spongiosa. […] (4G-4L) Two-week-old Nestin-GFP mice were treated with prednisolone (10 mg/m^2/day) or Vehicle by daily intraperitoneal injection for 2 weeks. Immunofluorescence staining of femur sections were performed using antibodies against GFP (green) (4G) or Ki67 (red) (4K). Images in upper panels in (4G) and (4K) are lower power with boxes outlining the area of higher power in lower panels. Quantification of the number of GFP+ (4H) or Ki67+ (4L) cells in femoral primary spongiosa. […] Five mice per group. […] GP, growth plate.
(§2) For flow cytometric analysis and sorting of CD45-GFP− and CD45-GFP+ mesenchymal progenitor cells (MPCs) from femoral metaphysis, we dissected the femora free of soft tissues from Nestin-GFP mice. The epiphysis was removed and only the 3-mm-long metaphysis regions were processed. The bone was then digested with a protease solution (2 mg/mL collagenase A and 2.5 mg/mL trypsin in phosphate buffered saline [PBS]) for 20 minutes to remove the periosteum and periosteal progenitors (step I). […]
One of the major causes of secondary osteoporosis in children is the use of glucocorticoids for treatment of underlying chronic medical problems, such as autoimmune or inflammatory disorders. […] We thus assessed whether glucocorticoid-treated early pubertal mice display premature cellular senescence in primary spongiosa by injecting mice daily with prednisolone from age 2 weeks to 4 weeks.

[4] = system: childhood cancer diffuse intrinsic pontine glioma; settings: preclinical studies; cited from earlier work
Nestin-GFP mice [5] = assay: Growth hormone treatment of pubertal Nestin-GFP mice: cellular senescence / nestin expression in femoral primary spongiosa; format: in vivo, mouse
Method: as §1
as §2, with “I). The bones were cut into small pieces and digested in the protease solution for another 1 hour (C, step II).” for “I).”
We tested whether the progression of the cellular senescence in primary spongiosa of long bone, as indicated by loss of nestin expression, is associated with bone growth/accrual. […] We assessed changes in nestin expression in the femoral primary spongiosa in pubertal mice after administration of recombinant GH. […]

[6] = MPS plus GSK-J4 10 mg/kg b.w. daily for 4 weeks, compared to MPS alone and to controls
[7] = summary statement, glucocorticoid-treated mice

Q: What does the source list for `C[C@H]1C[C@@H]2[C@H]([C@@H](O)C[C@@]3(C)[C@H]2CC[C@]3(O)C(=O)CO)[C@@]2(C)C=CC(=O)C=C12` [MPS, methylprednisolone]?
A: ki67 expression in sorted CD144+ cells (quantitative RT-PCR) (BALB/c mice [1]): less; p16^INK4a expression in sorted CD144+ cells (quantitative RT-PCR) (BALB/c mice [1]): increased; p21^CIP1 expression in sorted CD144+ cells (quantitative RT-PCR) (BALB/c mice [1]): increased; p53 expression in sorted CD144+ cells (quantitative RT-PCR) (BALB/c mice [1]): increased; tail length (BALB/c mice [2]; MPS alone daily, 2, 3 and 4 weeks, compared with controls): significantly shortened; body weight (BALB/c mice [2]; MPS alone daily, monitored at 2, 3 and 4 weeks after treatment): no significant effect

Q: Which “senescence of the cells in primary spongiosa” value (Nestin-GFP mice [3]; mice treated with prednisolone) does the source give for `C[C@]12C=CC(=O)C=C1CC[C@@H]1[C@@H]2[C@@H](O)C[C@@]2(C)[C@H]1CC[C@]2(O)C(=O)CO` [prednisolone] here?
A: Its value is “accelerated”.

Q: And the “Ki67+ proliferative cells in femoral primary spongiosa” value (Nestin-GFP mice [3]; prednisolone 10 mg/m^2/day daily i.p. for 2 weeks, vs vehicle)?
A: The value was “reduced”.

Q: What about the “number of Nestin-GFP+ cells in femoral primary spongiosa (immunofluorescence staining and flow cytometry)” value (Nestin-GFP mice [3]; prednisolone 10 mg/m^2/day daily i.p. from age 2 weeks to 4 weeks, relative to vehicle-treated mice) of the same molecule?
A: The value was “significantly reduced”.

Q: For `CCOC(=O)CCNc1cc(N2CCc3ccccc3CC2)nc(-c2ccccn2)n1` [GSK-J4, N-[2-(2-Pyridinyl)-6-(1,2,4,5-tetrahydro-3H-3-benzazepin-3-yl)-4-pyrimidinyl]-β-alanine ethyl ester], which “growth of childhood cancer diffuse intrinsic pontine glioma” value [4] is on record?
A: The value was “effectively inhibit”.

Q: And the “bone loss phenotype induced by MPS (μCT of distal femur: femur length, BV/TV, Tb.N, Tb.Th, Tb.Sp)” value (BALB/c mice [2]; MPS plus GSK-J4 10 mg/kg b.w. daily for 4 weeks, 10 mg/kg)?
A: The value was “at least partially reversed; also recorded: rescued”.

Q: What about the “angiogenesis in femoral primary spongiosa (CD31 / Emcn fluorescence intensities)” value (BALB/c mice [2]; [6]) of the same molecule?
A: The value was “greatly improve”.

Q: What about the “osteogenesis in femoral primary spongiosa (Osx+ cells)” value (BALB/c mice [2]; [6]) of the same molecule?
A: Its value is “greatly improve”.

Q: What about the “MPS-induced shortening of tail length” value (BALB/c mice [2]; concurrent treatment, MPS plus GSK-J4 10 mg/kg b.w. daily, 2, 3 and 4 weeks) of the same molecule?
A: Its value is “abolished”.

Q: And the glucocorticoid-induced growth retardation (BALB/c mice [2]; summary statement)?
A: Its glucocorticoid-induced growth retardation is “rescued”.

Q: What about the H3K27 methylation (BALB/c mice [2]; [7]) of the same molecule?
A: Its H3K27 methylation is “elevated”.

Q: What about the “early onset cellular senescence” value (BALB/c mice [2]; [7]) of the same molecule?
A: The value was “blocked”.

B1: GH: recombinant mouse growth hormone (protein, UniProt P06880 27-216, looked up)
Somatotropin: FPAMPLSSLFSNAVLRAQHLHQLAADTYKEFERAYIPEGQRYSIQNAQAAFCFSETIPAPTGKEEAQQRTDMELLRFSLLLIQSWLGPVQFLSRIFTNSLMFGTSDRVYEKLKDLEEGIQALMQELEDGSPRVGQILKQTYDKFDANMRSDDALLKNYGLLSCFKKDLHKAETYLRVMKCRRFVESSCAF
Q: For B1, which “percentage of Ki67+ proliferative cells in primary spongiosa” value (Nestin-GFP mice [5]; GH 5 mg/kg daily i.p. for 4 weeks, relative to vehicle-treated mice) is on record?
A: The value was “higher”.

Q: And the “senescence of the cells in primary spongiosa” value (Nestin-GFP mice [5]; mice treated with growth hormone)?
A: The value was “reduced”.

Q: What about the “Nestin-GFP+ cells in primary spongiosa (immunofluorescence staining)” value (Nestin-GFP mice [5]; recombinant mouse-GH 5 mg/kg B.W. daily intraperitoneal injection for 4 weeks from 4 weeks of age, vs vehicle-treated mice) of the same molecule?
A: Its value is “significantly increased”.
